Columns and labels:
two-spotted spider mites [1] = experiment: Miticidal test on two-spotted spider mites (by dipping); assay type: in vivo, Tetranychus urticae; set-up: scale not given here; settings: dipping of soybean seedlings, active ingredient 500 ppm, 25° C., 13 days
Protocol: (§1) Wettable powders were prepared in accordance with Formulation Example 2 and diluted with water to an active ingredient concentration of 500 ppm. Soybean seedlings which had been inoculated with imago two-spotted spider mites were dipped in the resulting solutions and dried in air. The treated seedlings were placed in a thermostatic chamber at 25° C. for 13 days, and the mite survivors were counted for calculation of the miticidal value by using Equation 2. The test was carried out by one series system.

two-spotted spider mites [2] = experiment: Miticidal test on two-spotted spider mites (by soil drenching); assay type: in vivo, Tetranychus urticae; set-up: scale not given here; settings: active ingredient 100 ppm, 5 ml per 100 g soil, 25° C., 13 days
Protocol: as §1, with “100” for “500”, “100 g of the soil in cups with soybean” for “Soybean”, “drenched with 5 ml of” for “dipped in”, “solutions.” for “solutions and dried in air.”, “[…]” for “thermostatic”, “2.” for “2. The test was carried out by one series system.”

brown planthoppers = experiment: Insecticidal test on brown planthoppers; assay type: in vivo, Nilaparvata lugens; settings: active ingredient 500 ppm, germinating rice immersed, 4th-instar larvae, 25° C., 6 days
Protocol: Wettable powders were prepared in accordance with Formulation Example 2 and diluted with water to an active ingredient concentration of 500 ppm. Germinating rice was immersed in the resulting solutions and put in a plastic cup with a capacity of 60 ml. Ten 4th-instar larvae of brown planthoppers were released to the cup, and the cup was covered and placed in a thermostatic chamber at 25° C. for 6 days, and the survivors were counted for calculation of the insecticidal degree by using Equation 1. The test was carried out by one series system.

[3] = tested on: southern root-knot nematodes; experiment: Nemastatic test on southern root-knot nematodes; assay type: in vivo, Meloidogyne sp.; settings: diluted solution 20 ppm mixed 1:1 with suspension of second stage larvae, 25° C., 5 days
Protocol: Compounds of the present invention (5 parts) and Tween 20 (tradename for polyoxyethylene sorbitan monolaurate) (1 part) as a spreader were dissolved n N,N-dimethylformamide (94 parts) to prepare 5% emulsifiable concentrates of the compounds of the present invention. Distilled water was added to the emulsifiable concentrates to prepare diluted solutions having a concentration of the compounds of the present invention of 20 ppm. 0.5 ml of the diluted solutions and 0.5 ml of water suspensions containing 100 second stage larvae of southern root-knot nematodes were mixed, and the mixture were placed in a thermostatic chamber at 25° C. for 5 days, and the survivors were counted for calculation of the nemastatic degree by using Equation 3. The test was carried out by two series system.

| Compound | Miticidal value (two-spotted spider mites [1]) | Miticidal value (two-spotted spider mites [2]) | Insecticidal degree (%) (brown planthoppers) | Nemastatic degree (%) [3] |
| --- | --- | --- | --- | --- |
| Cc1cc(F)c(-n2nc(C(F)(F)F)nc2N(C)C(=O)C(F)(F)F)cc1[S+]([O-])CC(F)(F)F (racemic) [Compound 212] | 100 | 100 | 100% | 100% |
| Cc1cc(F)c(-n2nc(C(F)(F)F)nc2N)cc1SCC(F)(F)F [Compound 1, [5-(5-amino-3-trifluoromethyl-1,2,4-triazolyl)-4-fluoro-2-methylphenyl]2,2,2-trifluoroethyl sulfide] | 100 | 99 | 90% | 100% |
| Cc1cc(F)c(-n2nc(C(F)(F)F)nc2N)cc1[S+]([O-])CC(F)(F)F (stereo not drawn) [Compound 2, [5-(5-amino-3-trifluoromethyl-1,2,4-triazolyl)-4-fluoro-2-methylphenyl]2,2,2-trifluoroethyl sulfoxide] | 100 | 100 | 100% | 100% |
| Cc1cc(F)c(-n2nc(C(F)(F)F)nc2NC(=O)C(F)(F)F)cc1[S+]([O-])CC(F)(F)F (stereo not drawn) [Compound 6, [5-(5-trifluoroacetylamino-3-trifluoromethyl-1,2,4-triazolyl)-4-fluoro-2-methylphenyl]2,2,2-trifluoroethyl sulfoxide] | 100 | 100 | 100% | 100% |
| Cc1cc(F)c(-n2nc([S+]([O-])C(F)F)nc2N)cc1[S+]([O-])CC(F)(F)F (stereo not drawn) [Compound 30] | 100 | 100 |  | 95% |
| Cc1cc(F)c(-n2nc(C#N)nc2N)cc1SCC(F)(F)F [Compound 35] | 100 | 93 |  | 100% |
| Cc1cc(F)c(-n2nc(C#N)nc2N)cc1[S+]([O-])CC(F)(F)F (stereo not drawn) [Compound 36] | 100 | 100 |  | 100% |
| CNc1nc(C(F)(F)F)nn1-c1ccc(C)c([S+]([O-])CC(F)(F)F)c1 (stereo not drawn) [Compound 38] | 100 | 100 | 100% | 100% |
| Cc1cc(F)c(-n2nc(C(F)(F)F)nc2N(C)C)cc1SCC(F)(F)F [Compound 43] | 100 | 100 | 100% | 93% |
| CCc1nc(N)n(-c2cc([S+]([O-])CC(F)(F)F)c(C)cc2F)n1 (stereo not drawn) [Compound 50] | 100 | 100 | 99% | 98% |
| CCNc1nc(C(F)(F)F)nn1-c1cc([S+]([O-])CC(F)(F)F)c(C)cc1F (stereo not drawn) [Compound 60] | 100 | 100 | 100% |  |
| C#CCNc1nc(C(F)(F)F)nn1-c1cc([S+]([O-])CC(F)(F)F)c(C)cc1F (stereo not drawn) [Compound 66] | 100 | 100 | 100% | 94% |
| CC(=O)Nc1nc(C(F)(F)F)nn1-c1cc([S+]([O-])CC(F)(F)F)c(C)cc1F (stereo not drawn) [Compound 76] | 100 | 100 | 100% |  |
| COC(=O)Nc1nc(C(F)(F)F)nn1-c1cc([S+]([O-])CC(F)(F)F)c(C)cc1F (stereo not drawn) [Compound 80] | 100 | 100 | 100% |  |
| Cc1cc(F)c(-n2nc(C(F)(F)F)nc2NC(=O)N(C)C)cc1[S+]([O-])CC(F)(F)F (stereo not drawn) [Compound 84] | 100 | 100 | 100% |  |
| Cc1cc(F)c(-n2nc(SC(F)(F)F)nc2NC(=O)C(F)(F)F)cc1SCC(F)(F)F [Compound 99] | 100 | 100 | 100% |  |
| CNc1nc(SC(F)(F)C(F)(F)F)nn1-c1cc([S+]([O-])CC(F)(F)F)c(C)cc1F (stereo not drawn) [Compound 102] | 100 | 100 | 100% | 98% |
| Cc1cc(F)c(-n2nc(C(C)C)nc2N)cc1[S+]([O-])CC(F)(F)F (stereo not drawn) [Compound 111] | 100 | 100 | 100% |  |

| Compound | Miticidal value (two-spotted spider mites [1]) | Miticidal value (two-spotted spider mites [2]) | Insecticidal degree (%) (brown planthoppers) | Nemastatic degree (%) [3] |
| --- | --- | --- | --- | --- |
| CC(=O)Nc1nc(C(C)(C)C)nn1-c1cc([S+]([O-])CC(F)(F)F)c(C)cc1F (stereo not drawn) [Compound 113] | 100 | 100 | 100% |  |
| CNc1nc(C(C)(C)C)nn1-c1cc(SCC(F)(F)F)c(C)cc1F [Compound 114] | 100 | 100 | 100% | 100% |
| CNc1nc(C(C)(C)C)nn1-c1cc([S+]([O-])CC(F)(F)F)c(C)cc1F (stereo not drawn) [Compound 115] | 100 | 100 | 100% | 92% |
| CCc1nc(N)n(-c2cc([S+]([O-])CC(F)(F)F)c(C)cc2F)n1 (stereo not drawn) [Compound 117] | 100 | 100 | 100% |  |
| CCC(C)(C)c1nc(N)n(-c2cc([S+]([O-])CC(F)(F)F)c(C)cc2F)n1 (stereo not drawn) [Compound 119] | 100 | 100 | 90% |  |
| Nc1nc(C(F)(F)F)nn1-c1ccc(C(F)F)c([S+]([O-])CC(F)(F)F)c1 (stereo not drawn) [Compound 123] | 100 | 100 |  | 98% |
| Cc1ccc(-n2nc(C(F)(F)F)nc2N)cc1[S+]([O-])CC(F)(F)F (stereo not drawn) [Compound 125] | 100 | 99 | 100% | 91% |
| Nc1nc(C(F)(F)F)nn1-c1ccc(Cl)c([S+]([O-])CC(F)(F)F)c1 (stereo not drawn) [Compound 127] | 100 | 100 | 100% | 94% |
| Cc1cc(F)c(-n2nc(SCC(F)(F)F)nc2N)cc1[S+]([O-])CC(F)(F)F (stereo not drawn) [Compound 131] | 100 | 100 | 90% | 93% |
| Cc1cc(F)c(-n2nc([S+]([O-])CC(F)(F)F)nc2N)cc1[S+]([O-])CC(F)(F)F (stereo not drawn) [Compound 133] | 100 | 100 | 100% | 98% |
| Cc1cc(F)c(-n2nc(C(C)(C)C)nc2N)cc1SCC(F)(F)F [Compound 144] | 100 | 100 | 90% | 97% |
| Cc1ccc(-n2nc(C(F)(F)F)nc2NC(=O)C(F)(F)F)cc1[S+]([O-])CC(F)(F)F (stereo not drawn) [Compound 153] | 100 | 100 | 100% |  |
| CC(=O)Nc1nc(SCC(F)(F)F)nn1-c1cc([S+]([O-])CC(F)(F)F)c(C)cc1F (stereo not drawn) [Compound 155] | 100 | 100 | 90% |  |
| CC(=O)Nc1nc([S+]([O-])CC(F)(F)F)nn1-c1cc([S+]([O-])CC(F)(F)F)c(C)cc1F (stereo not drawn) [Compound 157] | 100 | 100 | 100% |  |
| CNc1nc(SCC(F)(F)F)nn1-c1cc([S+]([O-])CC(F)(F)F)c(C)cc1F (stereo not drawn) [Compound 161] | 100 | 100 | 100% | 98% |
| Cc1cc(F)c(-n2nc(C(F)(F)F)nc2NN)cc1SCC(F)(F)F [Compound 162] | 100 | 95 | 100% | 100% |
| Cc1cc(F)c(-n2nc(C(F)(F)F)nc2NC(C)C)cc1[S+]([O-])CC(F)(F)F (stereo not drawn) [Compound 167] | 100 | 100 | 100% |  |
| CNC(=O)Nc1nc(C(F)(F)F)nn1-c1cc([S+]([O-])CC(F)(F)F)c(C)cc1F (stereo not drawn) [Compound 169] | 100 | 100 | 100% |  |
